Assay [1] deals with eHsp90. As to the kind of experiment: In vivo imaging of eHsp90 expression in T cell transfer mouse model of IBD. The following applies: 10 nmoles IV. On the procedure: The T cell transfer model of IBD was utilized to evaluate the imaging potential of HS-131 for other autoimmune diseases. Naïve T cells isolated from female donor mice were transferred into SCID mice via IP injection. 3-5 weeks post transfer mice develop inflammation, an extended colon and epithelial hyperplasia. 24 hours post HS-131 tail vein injection mice were cryopreserved and imaged as previously mentioned. […] Experiments represent one mouse.
IBD Disease: On study day 0, Balb/C mice were terminated, and spleens obtained for CD4+CD45RBhigh cell isolation. After cells had been sorted and obtained, each animal received an IP injection of at a minimum 4×10^5 cells (200 μl/mouse injections). […]
CryoViz™ Imaging: Whole mice were imaged at 10.23 μm×10.23 μm in-plane resolution using an Olympus MVX-10 microscope with a 1X objective and 0.63× magnification and 40 μm section thickness, using the Cryo Viz™ (BioInVision, Inc., Cleveland, USA). CryoViz™ is a fully automated, serial sectioning-and-imaging system which provides 3-dimensional, tiled, microscopic anatomical bright field and molecular fluorescence images over large fields-of-view such as a whole mouse. Images were acquired using a dual band FITC/TxRed fluorescence filter (Chroma, Inc., Rockingham, VT), a liquid crystal RGB filter and a low-noise monochrome camera. […]

Assay [2] has as its system collagen induced arthritic (CIA) mouse model. Put plainly: Therapeutic efficacy in CIA mouse model (clinical score and joint histology). The following applies: 30 mg/kg QD. The class given is in vivo. On the procedure: FIGS. 9A-9E illustrate therapeutic potential of eHsp90 targeted therapies for the treatment of auto immune diseases. […] FIG. 9D are representative photomicrographs of forepaw, knee and ankle from a disease control (Naïve), diseased vehicle treated and HS-131 treated animals. “W” identifies wrist, arrows identifies representative affected joints, and “S” identifies inflammation. […] Experiment was performed once with 12 biological replicates per group.
CIA Disease: Collagen was prepared at 4 mg/ml in 0.01 N acetic acid. Equal volumes of 4 mg/ml collagen and 5 mg/ml Freund's complete adjuvant were emulsified by hand mixing with syringes for approximately 5 min, at which point a bead of this material holds its form when placed in water. On study days 0 and 21, animals were anesthetized with isoflurane and given intradermal injections of a total of 400 μg of type II collagen in Freund's complete adjuvant at the base of the tail.
CIA Experimental Design: Mice were randomized into treatment groups by body weight on study day 18. Animals were treated from day 21-36 of the study with either 20 μL of HS-131 (30 mg/kg) PO, QD or vehicle (DMSO) PO, QD. On study day 36, the mice were euthanized for necropsy. Clinical scores were given for each of the paws (right front, left front, right rear, left rear) on study days 21-36. 0=normal, 1=one hind or fore paw joints affected or minimal diffuse erythema and swelling, 2=two hind or fore paw joints affected or moderate diffuse erythema and swelling, 3=three hind or fore paw joints affected or moderate diffuse erythema and swelling, 4=four hind or fore paw joints affected or marked diffuse erythema and swelling, 5=entire paw affected, severe diffuse erythema and severe swelling, unable to flex digits. Experimenter was blinded from the treatment group during clinical evaluation and scoring.
Immunohistological Staining: After 24-48 hours in fixative and 4-5 days in 5% formic acid for decalcification, tissues were trimmed, and processed for paraffin embedding. Paws were embedded in paraffin in the frontal plane and the knees were embedded with the patella facing down. Ankles, if left attached to the hind paw, were also embedded in the frontal plane but may be detached and sectioned in the sagittal plane for special purposes. Sections were cut and stained with toluidine blue.
0=Normal. 0.5=Very minimal, affects only 1 joint or minimal multifocal periarticular infiltration of inflammatory cells. 1=Minimal infiltration of inflammatory cells in synovium and periarticular tissue of affected joints. 2=Mild infiltration of inflammatory cells. When referring to paws, generally restricted to affected joints (1-3 affected). 3=Moderate infiltration with moderate edema. When referring to paws, restricted to affected joints, generally 3-4 joints and the wrist or ankle. 4=Marked infiltration affecting most areas with marked edema, 1 or 2 unaffected joints may be present. 5=Severe diffuse infiltration with severe edema affecting all joints (to some extent) and periarticular tissues.
0=Normal. 0.5=Very minimal, affects only one area of the synovium or minimal multifocal periarticular infiltration of inflammatory cells. 1=Minimal infiltration of inflammatory cells in synovium and periarticular tissue of affected synovial areas. 2=Mild diffuse infiltration of inflammatory cells. 3=Moderate diffuse infiltration of inflammatory cells. 4=Marked diffuse infiltration of inflammatory cells. 5=Severe diffuse infiltration of inflammatory cells.
0=Normal. 0.5=Very minimal=Affects marginal zones only of one to several areas (knees) or joints (paws). 1=Minimal=Generally minimal to mild loss of toluidine blue staining (proteoglycan) with no obvious chondrocyte loss or collagen disruption in affected joints/areas. 2=Mild=Generally mild loss of toluidine blue staining (proteoglycan) with focal areas of chondrocyte loss and/or collagen disruption in some affected joints/areas. […]

Consider `Cc1nn(-c2ccc(C(N)=O)c(NCCCOCCOCCOCCOCCOCCCNCc3ccc(C(=C\C=C4\N(CCCCS(=O)(=O)[O-])c5ccccc5C4(C)C)/C=C/C4=[N+](CCCCS(=O)(=O)O)c5ccccc5C4(C)C)cc3)c2)c2c1C(=O)CC(C)(C)C2` [HS-131], for which the “uptake in joints or paws of IBD mouse” value in assay [1] (24 hours post injection) is “no uptake”. Moreover, the “fluorescence from the inflamed bowels of IBD mouse” value in assay [1] (24 hours post injection (FIG. 7A)) is reported as “extensive fluorescent signaling”. In addition, the “pathogenesis of disease development (animals developing disease)” value in assay [2] (day 21-36, N=12/group (FIG. 9A)) is on record as “comparable to the vehicle control”. In assay [2] (day 36, vs vehicle (FIG. 9E)), the “reduction of bone resorption, histological scoring” value was found to be 35%; the “reduction of cartilage damage, histological scoring” value is on record as 36%; the “reduction of inflammation, histological scoring” value turned out to be 27%; the “reduction of pannus, histological scoring” value is 35%. Further, in assay [2] (day 36, vs vehicle (FIG. 9E)), the “reduction of periosteal bone, histological scoring” value is reported as 29%. Besides, in assay [2] (throughout study period, vs vehicle, p<.001 (FIG. 9B)), the “mean clinical arthritic score” value was “significantly reduced”. Moreover, the “decrease in clinical score, area under the curve” value in assay [2] (vs vehicle (FIG. 9C)) is on record as ~23%.

For the origin of these results see patent publication US20240299358A1, “COMPOSITIONS AND METHODS FOR DIAGNOSIS AND TREATMENT OF AUTOIMMUNE DISEASES” (DUKE UNIVERSITY, priority 2021, published 2024).
